Like-named read-outs stand apart in the source and are kept apart here.
How the values were obtained:
[1] = target: T1, recombinant human CI-M6PR protein (Homo sapiens, UniProt P11717); experiment: Human CI-M6PR binding assay (ELISA); settings: for EC50: antibody conjugate; for binding affinity for M6PR, rank among the conjugates tested: matuzumab conjugates, ELISA, FIGS. 19A-19F
T1 construct: purchased R&D 6418-GR-050
Method: Nunc black solid bottom MaxiSorp plates were allowed to incubate overnight at 4° C. coated with […] of recombinant human CI-M6PR protein (R&D, 6418-GR-050) in 50 μL PBS. The next day, coating was decanted and plates were washed 3× with PBS. Wells were blocked with 350 μL of 3% BSA-PBS for 1 hour at room temperature. […] 50 μL of diluted conjugates were added to the plate and allowed to incubate at room temperature for 2 hours. After incubation, solutions in plate were decanted and washed with 350 μL of 0.05% PBS-Tween20 three times, drying the plate each wash on a clean paper towel. 50 μL of peroxidase AffiniPure Mouse Anti-Human IgG (Jackson Immuno, 209-035-088) diluted in 3% BSA-PBS to […] was added to the plate and allowed to incubate for 1 hour at room temperature in the dark. After incubation, solutions in plate were decanted and washed with 350 μL of 0.05% PBS-Tween20 3 times, drying the plate each wash on a clean paper towel. […] 50 μL of QuantaBlu solution was added to wells and allowed to incubate for 5-10 minutes at room temperature. After incubation, plates were read on a Perkin Elmer EnVision using photometric 340 and Umbelliferone 460 filter sets for excitation and emission, respectively. Data analysis and non-linear curve-fitting was performed using GraphPad Prism.

Hep G2 cells = experiment: Conjugate-mediated uptake of IgG2a into HepG2 cells; assay type: cell-based, human; settings: one hour incubation, FIG. 25; average loading (816), DAR4 (817), DAR4 (520)
Method: The uptake of antibody conjugates of exemplary M6PR or ASGPR binding compounds was assessed in Hep G2 cells, using a method similar to that described in Example 79.

Jurkat cells = experiment: Conjugate-mediated uptake of IgG2a-Alexa488 into Jurkat cells (flow cytometry); assay type: cell-based; settings: one hour incubation, FIG. 24
Method: The anti-IgG2a conjugates were bound to IgG2a-Alexa488, as follows: equal molar ratios of anti-IgG2a and IgG2a-Alexa488 were added in tissue culture media for 30 minutes at room temperature. The resulting anti-IgG2a:IgG2a antibody-Alexa488 compositions were added to Jurkat cells (100 k cells/50 ul per well, n=2), and Alexa488 fluorescence levels were measured (via Alexa488 measurement) at 1 hour and 24 hours by flow cytometry. Because Alexa488 accumulates in cells, this presents a way to measure total intracellular uptake by cells over time.

[2] = average loading DAR 9, FIG. 23, read-out: EC50 (nM) in M6PR binding assay
[3] = average loading DAR 9.5, FIG. 23, read-out: EC50 (nM) in M6PR binding assay

O=C(CCCCCc1cn(CCOCCOCCOCCOCCC(=O)Oc2c(F)c(F)c(F)c(F)c2F)nn1)Nc1ccc(O[C@H]2O[C@H](CCP(=O)(O)O)[C@@H](O)[C@H](O)[C@@H]2O)cc1 [513 (I-39)]
EC50 [1, 2]: 0.186 nM

O=C(CCOCCn1cc(CCCCNC(=S)Nc2ccc(O[C@H]3O[C@H](CCP(=O)(O)O)[C@@H](O)[C@H](O)[C@@H]3O)cc2)nn1)Oc1c(F)c(F)c(F)c(F)c1F [519 (I-47)]
EC50 [1, 3]: 0.266 nM

O=C(CCOCCOCCOCCOCCn1cc(CCCCNC(=S)Nc2ccc(O[C@H]3O[C@H](CCP(=O)(O)O)[C@@H](O)[C@H](O)[C@@H]3O)cc2)nn1)Oc1c(F)c(F)c(F)c(F)c1F [520 (I-7)]
EC50 ([1]; additional M6PR binding assays, average loading DAR 4, read-out: EC50 (nM) in M6PR binding assay): 0.412 nM | EC50 ([1]; average loading DAR 2, FIG. 23, read-out: EC50 (nM) in M6PR binding assay): 2.6 nM | EC50 ([1]; average loading DAR 4, FIG. 23, read-out: EC50 (nM) in M6PR binding assay): 0.221 nM | EC50 [1, 2]: 0.217 nM | uptake into HepG2 cells (cell fluorescence versus conjugate concentration) (Hep G2 cells): comparable HepG2 cellular uptake

O=C(CCOCCn1cc(COCCOCCOCCNC(=S)Nc2ccc(O[C@H]3O[C@H](CCP(=O)(O)O)[C@@H](O)[C@H](O)[C@@H]3O)cc2)nn1)Oc1c(F)c(F)c(F)c(F)c1F [522 (I-49)]
EC50 ([1]; average loading DAR 11, FIG. 23, read-out: EC50 (nM) in M6PR binding assay): 0.227 nM

O=C(CCOCCOCCOCCOCCOCCOCCOCCOCCn1cc(CCCCNC(=S)Nc2ccc(O[C@H]3O[C@H](CCP(=O)(O)O)[C@@H](O)[C@H](O)[C@@H]3O)cc2)nn1)Oc1c(F)c(F)c(F)c(F)c1F [526 (I-48)]
EC50 ([1]; average loading DAR 10, FIG. 23, read-out: EC50 (nM) in M6PR binding assay): 0.186 nM

C[C@H](NC(=O)CCCn1cc(CCCCNC(=S)Nc2ccc(O[C@H]3O[C@H](CCP(=O)(O)O)[C@@H](O)[C@H](O)[C@@H]3O)cc2)nn1)C(=O)N[C@@H](C)C(=O)N[C@@H](C)C(=O)NCCOCCOCCOCCOCCC(=O)Oc1c(F)c(F)c(F)c(F)c1F [528 (I-51)]
EC50 ([1]; EC50 (nM) in M6PR binding assay, additional M6PR binding assays, average loading DAR 2): 4.44 nM | EC50 ([1]; EC50 (nM) in M6PR binding assay, additional M6PR binding assays, average loading DAR 8): 0.301 nM | EC50 ([1]; EC50 (nM) in M6PR binding assay, average loading DAR 9.5, FIG. 23): 0.199 nM | uptake into Jurkat cells, average loading DAR9 versus lower average loading DAR2 (Jurkat cells): greater uptake

O=C(NCCCCc1cn(CCOCCOCCOCCOCCC(=O)Oc2c(F)c(F)c(F)c(F)c2F)nn1)Nc1ccc(O[C@H]2O[C@H](CCP(=O)(O)O)[C@@H](O)[C@H](O)[C@@H]2O)cc1 [529 (I-38)]
EC50 [1, 3]: 0.194 nM

O=C(CCOCCOCCOCCOCCn1cc(CCCCNC(=S)Nc2ccc(O[C@H]3O[C@H](CC(C(=O)O)C(=O)O)[C@@H](O)[C@H](O)[C@@H]3O)cc2)nn1)Oc1c(F)c(F)c(F)c(F)c1F [537 (I-66)]
EC50 ([1]; additional M6PR binding assays, average loading DAR 8, read-out: EC50 (nM) in M6PR binding assay): 2.31 nM | EC50 [1, 2]: 3.36 nM

O=C(CCOCCOCCOCCN(CCOCCOCCOCCn1cc(CCCCNC(=S)Nc2ccc(O[C@H]3O[C@H](CCP(=O)(O)O)[C@@H](O)[C@H](O)[C@@H]3O)cc2)nn1)CCOCCOCCOCCn1cc(CCCCNC(=S)Nc2ccc(O[C@H]3O[C@H](CCP(=O)(O)O)[C@@H](O)[C@H](O)[C@@H]3O)cc2)nn1)NCCN1C(=O)C=CC1=O [706 (I-41)]
EC50 ([1]; additional M6PR binding assays, maleimide-Cys conjugation, read-out: EC50 (nM) in M6PR binding assay): 0.271 nM

O=C(CCCn1cc(CCCCNC(=S)Nc2ccc(O[C@H]3O[C@H](CCP(=O)(O)O)[C@@H](O)[C@H](O)[C@@H]3O)cc2)nn1)N[C@@H](CCCCn1cc(CCCCNC(=S)Nc2ccc(O[C@H]3O[C@H](CCP(=O)(O)O)[C@@H](O)[C@H](O)[C@@H]3O)cc2)nn1)C(=O)N[C@@H](CCCCn1cc(CCCCNC(=S)Nc2ccc(O[C@H]3O[C@H](CCP(=O)(O)O)[C@@H](O)[C@H](O)[C@@H]3O)cc2)nn1)C(=O)N[C@@H](CCCCn1cc(CCCCNC(=S)Nc2ccc(O[C@H]3O[C@H](CCP(=O)(O)O)[C@@H](O)[C@H](O)[C@@H]3O)cc2)nn1)C(=O)NCCOCCOCCOCCOCCC(=O)Oc1c(F)c(F)c(F)c(F)c1F [728 (I-52)]
EC50 ([1]; additional M6PR binding assays, average loading DAR 6, read-out: EC50 (nM) in M6PR binding assay): 0.28 nM

CC(=O)N[C@H]1[C@H](OCCCCC(=O)NCCCNC(=O)CCOCC(COCCC(=O)NCCCNC(=O)CCCCO[C@@H]2O[C@H](CO)[C@H](O)[C@H](O)[C@H]2NC(C)=O)(COCCC(=O)NCCCNC(=O)CCCCO[C@@H]2O[C@H](CO)[C@H](O)[C@H](O)[C@H]2NC(C)=O)NC(=O)CCCCCCCCCCC(=O)Oc2c(F)c(F)c(F)c(F)c2F)O[C@H](CO)[C@H](O)[C@@H]1O [816 (ASGPR compound I-124)]
uptake into HepG2 cells (cell fluorescence versus conjugate concentration) (Hep G2 cells): comparable HepG2 cellular uptake

CC(=O)N[C@H]1[C@H](OCCCCC(=O)NCCCNC(=O)CCOCC(COCCC(=O)NCCCNC(=O)CCCCO[C@@H]2O[C@H](CO)[C@H](O)[C@H](O)[C@H]2NC(C)=O)(COCCC(=O)NCCCNC(=O)CCCCO[C@@H]2O[C@H](CO)[C@H](O)[C@H](O)[C@H]2NC(C)=O)NC(=O)CCCCCCCCCCCN2C(=O)C=CC2=O)O[C@H](CO)[C@H](O)[C@@H]1O [817 (ASGPR compound I-123), N-[1,3-bis(2-{[3-(5-{[(2R,3R,4R,5R,6R)-3-acetamido-4,5-dihydroxy-6-(hydroxymethyl)oxanyl]oxy}pentanamido)propyl]carbamoyl}ethoxy)-2-[(2-{[3-(5-{[(2R,3R,4R,5R,6R)acetamido-4,5-dihydroxy-6-(hydroxymethyl)oxanyl]oxy}pentanamido)propyl]carbamoyl}ethoxy)methyl]propan-2-yl]-12-(2,5-dioxo-2,5-dihydro-1H-pyrrol-1-yl)dodecanamide]
uptake into HepG2 cells (cell fluorescence versus conjugate concentration) (Hep G2 cells): comparable HepG2 cellular uptake

B1: Compound I-7 (d8): "matuzumab conjugates (matuzumab-Compound I-7(d4), matuzumab-Compound I-7(d8) ..." (conjugate)
heavy: QVQLVQSGAEVKKPGASVKVSCKASGYTFTSHWMHWVRQAPGQGLEWIGEFNPSNGRTNYNEKFKSKATMTVDTSTNTAYMELSSLRSEDTAVYYCASRDYDYAGRYFDYWGQGTLVTVSSASTKGPSVFPLAPSSKSTSGGTAALGCLVKDYFPEPVTVSWNSGALTSGVHTFPAVLQSSGLYSLSSVVTVPSSSLGTQTYICNVNHKPSNTKVDKKVEPKS
light: DIQMTQSPSSLSASVGDRVTITCSASSSVTYMYWYQQKPGKAPKLLIYDTSNLASGVPSRFSGSGSGTDYTFTISSLQPEDIATYYCQQWSSHIFTFGQGTKVEIKRTVAAPSVFIFPPSDEQLKSGTASVVCLLNNFYPREAKVQWKVDNALQSGNSQESVTEQDSKDSTYSLSSTLTLSKADYEKHKVYACEVTHQGLSSPVTKSFNRGE
modifications: left off: a dimerising Fc or GST
binding affinity for M6PR, rank among the conjugates tested [1]: highest

B2: Compound I-11 (d4): "matuzumab conjugates (... matuzumab-Compound I-11(d4) ..." (conjugate)
heavy: QVQLVQSGAEVKKPGASVKVSCKASGYTFTSHWMHWVRQAPGQGLEWIGEFNPSNGRTNYNEKFKSKATMTVDTSTNTAYMELSSLRSEDTAVYYCASRDYDYAGRYFDYWGQGTLVTVSSASTKGPSVFPLAPSSKSTSGGTAALGCLVKDYFPEPVTVSWNSGALTSGVHTFPAVLQSSGLYSLSSVVTVPSSSLGTQTYICNVNHKPSNTKVDKKVEPKS
light: DIQMTQSPSSLSASVGDRVTITCSASSSVTYMYWYQQKPGKAPKLLIYDTSNLASGVPSRFSGSGSGTDYTFTISSLQPEDIATYYCQQWSSHIFTFGQGTKVEIKRTVAAPSVFIFPPSDEQLKSGTASVVCLLNNFYPREAKVQWKVDNALQSGNSQESVTEQDSKDSTYSLSSTLTLSKADYEKHKVYACEVTHQGLSSPVTKSFNRGE
modifications: left off: a dimerising Fc or GST
binding affinity for M6PR, rank among the conjugates tested [1]: lowest

— US20230158155A1, “Cell Surface Receptor Binding Compounds and Conjugates” (priority 2020, published 2023)
